Data as given in patent US12653827B2, “Methods of treating indolent systemic mastocytosis” (Telios Pharma Inc., priority 2024, dated 2026).

Tests used:
BTK [1] = target: T1, BTK (Homo sapiens, UniProt Q06187); assay: BTK phosphorylation in mast cells (FIG. 19); format: cell-based; set-up: endogenous in cells
[2] = system: IL-8, MCP-1, GM-CSF and IL-13; assay: MRGPRX2-mediated cytokine production in ISM-like mast cells; format: cell-based, human
Description: (§1) Human mast cells were differentiated from bone marrow CD34+ cells from four healthy donors and were cultured in the presence of SCF (100 ng/mL) to mimic mast cells in ISM and treated with Compound 128 for two hours prior to stimulation. Mas-related G protein-coupled receptor (MRGPRX2) agonists, Compound 48/80 (C48/80; a product of N-methyl-p-methoxyphenethylamine with formaldehyde) or Substance P (SP) were used to activate the MRGPRX2 pathway. For pBTK test, cells were stimulated with C48/80 (10 μg/mL) for ten minutes at 37° C. and cells were stained. The median fluorescence intensity of phosphorylated BTK was measured. The fold change over unstimulated control for pBTK was calculated. For cytokine test, cells were stimulated with C48/80 (10 μg/mL) or SP (30 μM) for four hours at 37° C. Supernatant was collected and cytokine levels were measured using the BD Cytometric Bead Array (CBA) human soluble protein master buffer kit (Becton Dickinson) and BD CBA human soluble protein flex sets for IL-8, MCP-1, GM-CSF and IL-13 (Becton Dickinson). Cytokine levels were measured and normalized to percent of control, with 0% representing the level of the unstimulated control.

[3] = system: calcium influx in mast cell; assay: IgE-mediated calcium influx in ISM patient mast cells (FIG. 17); format: cell-based; details: presence of SCF
Description: Mast cell from an ISM patient was treated with Compound 128 at 50 mg, 75 mg, 100 mg, and 150 mg BID dose prior to antigen (Ag) stimulation. ISM 3-2 mast cell donor MC 1061-004 C1D8 D39. Experiments performed in the presence of SCF. […] Percent of Control (POC) based on Area-under-Curve above baseline (1st value).

mast cells = assay: Return of degranulation after Compound 128 exposure and washout (FIG. 18); format: cell-based; details: flow cytometry
From the text: FIGS. 18A-D show return of degranulation after Compound 128 exposure.

human mast cells = assay: Antigen-induced degranulation (CD63 and histamine) in ISM-like human mast cells; format: cell-based; details: six healthy donors, treated two hours
Description: (§2) Human mast cells were derived from bone marrow CD34+ cells from six healthy donors for up to eight weeks by culturing CD34+ cells in StemSpan SFEM II (Stem Cell Technologies) supplemented with stem cell factor (SCF; 100 ng/mL; R&D System), IL-6 (R&D Systems), IL-3 (R&D Systems) and 1% penicillin/streptomycin (P/S; Gibco) for the first 10 days and in StemSpan SFEM II supplemented with SCF and IL-6 and 1% P/S for the remaining time in culture. […] Supernatant was collected and histamine levels were measured using a Histamine ELISA kit (Eagle Biosciences). […] Percent of activated mast cells was calculated as number of activated mast cells over the total number of mast cells.
Human mast cells were differentiated from bone marrow CD34+ cells from six healthy donors, cultured and sensitized as set forth in Example 4. […] The median fluorescence intensity of phosphorylated BTK was measured. CD63 and histamine levels in these cells were measured and percent activated mast cells were calculated as set forth in Example 4. The percent of stimulated control for pBTK, activated mast cells (CD63+) and histamine levels was calculated. […]

[4] = system: calcium influx in human mast cells; assay: Calcium flux assay in antigen-stimulated human mast cells; format: cell-based; details: treated 2 hours, NP-BSA stimulation
Description: as §2
Compound 128 Inhibits Calcium Signaling in Human Mast Cells. […] The median fluorescence intensity of cytosolic calcium was measured across the stimulation time period and graphed to represent the calcium influx profile. The area under the curve (AUC) of the calcium influx profile was calculated and normalized as a percent of stimulated control. […]

[5] = system: downstream signaling proteins; assay: Downstream signaling proteins in antigen-stimulated mast cells (FIG. 20); format: cell-based; details: mast cells stimulated with an antigen
BTK [6] = target: T1, BTK; assay: MRGPRX2-induced BTK phosphorylation in ISM-like mast cells; format: cell-based; set-up: endogenous in cells; host or cells: Primary human mast cells differentiated from bone marrow CD34+ cells of healthy donors, cultured with SCF; details: 0.1 μM; C48/80 stimulation
Description: as §1

T1 sequence (Q06187 whole entry): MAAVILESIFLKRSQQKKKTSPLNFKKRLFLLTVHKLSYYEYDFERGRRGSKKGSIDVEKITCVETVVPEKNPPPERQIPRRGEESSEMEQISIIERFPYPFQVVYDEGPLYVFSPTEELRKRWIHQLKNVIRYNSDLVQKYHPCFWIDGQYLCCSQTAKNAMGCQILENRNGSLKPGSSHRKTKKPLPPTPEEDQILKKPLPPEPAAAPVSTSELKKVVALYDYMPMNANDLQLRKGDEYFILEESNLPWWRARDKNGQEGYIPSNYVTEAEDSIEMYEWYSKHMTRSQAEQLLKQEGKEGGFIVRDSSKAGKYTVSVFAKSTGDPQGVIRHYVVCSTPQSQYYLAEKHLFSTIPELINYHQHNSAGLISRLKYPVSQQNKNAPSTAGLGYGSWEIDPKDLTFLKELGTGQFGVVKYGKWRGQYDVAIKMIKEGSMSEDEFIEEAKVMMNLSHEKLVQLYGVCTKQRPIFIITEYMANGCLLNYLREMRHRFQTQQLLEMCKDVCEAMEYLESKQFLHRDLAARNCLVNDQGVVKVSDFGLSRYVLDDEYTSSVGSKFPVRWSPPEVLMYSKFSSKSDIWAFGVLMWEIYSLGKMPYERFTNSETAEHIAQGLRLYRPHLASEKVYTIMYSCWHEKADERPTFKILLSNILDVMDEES

`C=CC(=O)N1CCC(F)(CNc2ncnc(N)c2-c2ccc(Oc3ccccc3)cc2)CC1` [Compound 128, 1-(4-(((6-amino-5-(4-phenoxyphenyl)pyrimidin-4-yl)amino)methyl)-4-fluoropiperidin-1-yl)prop-2-en-1-one] was tested, and the “potency in inhibiting BTK phosphorylation in mast cells” value (BTK [1]) was “high potency”, the MRGPRX2-mediated cytokine production ([2]; 0.1 μM) was “partially inhibited” and the MRGPRX2-mediated cytokine production ([2]; 0.5 and 1 μM) was “inhibition of cytokine production was increased”. For the same compound, the C48/80-mediated cytokine production ([2]; C48/80 (10 μg/mL) stimulation) was “partial inhibition”, the “MRGPRX2-mediated cytokine production in ISM-like mast cells (figure legend)” value ([2]; FIGS. 15A-C) was “inhibits” and the SP-mediated cytokine production ([2]; Substance P (30 μM) stimulation) was “fully inhibited”. The “inhibition of IgE-mediated calcium influx” value [3] was “potently inhibits”, the “time to restoration of degranulation after inhibition” value (mast cells) was at most 24 h and the “inhibition of IgE-mediated degranulation (CD63 and histamine)” value (human mast cells) was “potently inhibits”. The “mast cells undergoing calcium influx (AUC, percent of stimulated control)” value ([4]; ISM-like (+SCF) mast cells) was “less than 7%”, the “mast cells undergoing calcium influx (AUC, percent of stimulated control)” value ([4]; healthy (−SCF) mast cells) was under 3% and the “activation of multiple downstream signaling proteins” value [5] was “can be inhibited”. For the same compound, the “MRGPRX2-induced BTK phosphorylation” value (BTK [6]) was “inhibited”.
